Counter-ions that a name gives are not always drawn. Like-named read-outs stand apart in the source and are kept apart here.
Key:
Actinomyces israellii = assay: agar-dilution MIC vs. anaerobic bacteria; assay type: cell-based; details: strain W855; Table 6; disodium salt, monohydrate
Experimental: (§1) The agar-dilution procedure described by the International Collaborative Study (ICS) group was used to determine MIC values.
The MIC was determined by the agar-dilution method.

Clostridium perfringens = assay: microbe, parasite or virus in culture; assay type: cell-based; details: strain 81; Table 6; disodium salt, monohydrate
Eubacterium aerofaciens = assay: agar-dilution MIC vs. anaerobic bacteria; assay type: cell-based; details: strain 1235; Table 6; disodium salt, monohydrate
[1] = tested on: Peptococcus asaccharolyticus; assay: agar-dilution MIC vs. anaerobic bacteria; assay type: cell-based; details: strain 1302; Table 6; disodium salt, monohydrate
Propionibacterium acnes = assay: agar-dilution MIC vs. anaerobic bacteria; assay type: cell-based; details: strain 79; Table 6; disodium salt, monohydrate
Bacteroides fragilis [2] = assay: agar-dilution MIC vs. anaerobic bacteria; assay type: cell-based; details: Table 6, disodium salt, monohydrate
[3] = tested on: Bacteroides melanogenicus; assay: agar-dilution MIC vs. anaerobic bacteria; assay type: cell-based; details: Table 6, disodium salt, monohydrate
Bacteroides vulgatis = assay: agar-dilution MIC vs. anaerobic bacteria; assay type: cell-based; details: strain 1211; Table 6; disodium salt, monohydrate
Fusobacterium symbiosum = assay: agar-dilution MIC vs. anaerobic bacteria; assay type: cell-based; details: strain 1470; Table 6; disodium salt, monohydrate
[4] = tested on: Fusobacterium necrophorum; assay: agar-dilution MIC vs. anaerobic bacteria; assay type: cell-based; details: strain 6054A; Table 6; disodium salt, monohydrate
B. corrodens = assay: agar-dilution MIC vs. Bacteroides species; assay type: cell-based; details: B. corrodens 1874; 24 hours; Table 8; disodium salt, monohydrate
Experimental: as §1
(§2) The MIC values were determined by the agar-dilution method, the endpoints being read 24 hours after incubation, and are recorded in Table 8, which follows.

B. thetaiotaomicron = assay: agar-dilution MIC vs. Bacteroides species; assay type: cell-based; details: 24 hours, Table 8, disodium salt, monohydrate
Experimental: as §1, §2

B. vulgatis = assay: agar-dilution MIC vs. Bacteroides species; assay type: cell-based; details: B. vulgatis 1563; 24 hours; Table 8; disodium salt, monohydrate
Experimental: as §1, §2

Bacteroides fragilis [5] = assay: agar-dilution MIC vs. Bacteroides species; assay type: cell-based; details: 24 hours, Table 8, disodium salt, monohydrate
Experimental: as §1, §2

[6] = tested on: Peptococcus asaccharolyticus; assay: agar-dilution MIC vs. Peptococcus and Peptostreptococcus species; assay type: cell-based; details: Table 9, disodium salt, monohydrate
Experimental: as §1
(§3) The MIC values were determined by the agar-dilution method, and are recorded in Table 9, which follows.

Peptococcus constellatus = assay: as above; assay type: cell-based; details: Pc. constellatus 1468; Table 9; disodium salt, monohydrate
Experimental: as §1, §3

Peptococcus magnus = assay: as above; assay type: cell-based; details: Table 9, disodium salt, monohydrate
Experimental: as §1, §3

Peptococcus prevoti = assay: as above; assay type: cell-based; details: Table 9, disodium salt, monohydrate
Experimental: as §1, §3

[7] = tested on: Peptostreptococcus anaerobius; assay: as above; assay type: cell-based; details: Table 9, disodium salt, monohydrate
Experimental: as §1, §3

[8] = tested on: Peptostreptococcus intermedius; assay: as above; assay type: cell-based; details: Table 9, disodium salt, monohydrate
Experimental: as §1, §3

Trichomonas vaginalis = assay: broth dilution assay, antitrichomonal activity; assay type: cell-based; details: Trichomonas vaginalis; broth dilution assay; read-out: Minimal Inhibitory Concentration
hygroscopicity = assay type: physicochemical; details: monohydrate, brown powder
Staphylococcus aureus = assay: disc-plate screening procedure, zone of inhibition
Streptococcus pyogenes = assay: disc-plate screening procedure, zone of inhibition; details: read-out: Zone Diameter
[9] = tested on: Streptococcus sp. (Group D); assay: disc-plate screening procedure, zone of inhibition; details: read-out: Zone Diameter
Streptococcus pneumoniae = assay: disc-plate screening procedure, zone of inhibition; details: read-out: Zone Diameter

Cc1cccc(O)c1C(=O)OC(C)c1cccc2nc3c(C(=O)O)cccc3nc12 (stereo not shown) [A-32256 disodium salt, 6-[1-[(2-hydroxy-6-methylbenzoyl)oxy]ethyl]-1-phenazinecarboxylic acid, disodium salt, monohydrate]
MIC (Actinomyces israellii): ≤ 0.5 µg/mL
MIC (Clostridium perfringens): 1.0 µg/mL
MIC (Eubacterium aerofaciens): ≤ 0.5 µg/mL
MIC [1]: ≤ 0.5 µg/mL
MIC (Propionibacterium acnes): ≤ 0.5 µg/mL
MIC (Bacteroides fragilis [2]; strain 111): ≤ 0.5 µg/mL
MIC (Bacteroides fragilis [2]; strain 1877): ≤ 0.5 µg/mL
MIC (Bacteroides fragilis [2]; strain 1936B): ≤ 0.5 µg/mL
MIC ([3]; strain 1856/28): 32 µg/mL
MIC ([3]; strain 2736): ≤ 0.5 µg/mL
MIC (Bacteroides vulgatis): ≤ 0.5 µg/mL
MIC (Fusobacterium symbiosum): ≤ 0.5 µg/mL
MIC [4]: 1.0 µg/mL
MIC (B. corrodens): ≤ 0.015 µg/mL
MIC (B. thetaiotaomicron; B. thetaiotaomicron 1438): 0.03 µg/mL
MIC (B. thetaiotaomicron; B. thetaiotaomicron 1900A): 0.03 µg/mL
MIC (B. vulgatis): 0.03 µg/mL
MIC (Bacteroides fragilis [5]; B. fragilis 2): ≤ 0.015 µg/mL
MIC (Bacteroides fragilis [5]; B. fragilis 9): ≤ 0.015 µg/mL
MIC (Bacteroides fragilis [5]; B. fragilis 62): ≤ 0.015 µg/mL
MIC (Bacteroides fragilis [5]; B. fragilis 103): ≤ 0.015 µg/mL
MIC (Bacteroides fragilis [5]; B. fragilis 104): ≤ 0.015 µg/mL
MIC (Bacteroides fragilis [5]; B. fragilis 106): ≤ 0.015 µg/mL
MIC (Bacteroides fragilis [5]; B. fragilis 107): 0.03 µg/mL
MIC (Bacteroides fragilis [5]; B. fragilis 108): ≤ 0.015 µg/mL
MIC (Bacteroides fragilis [5]; B. fragilis 110): ≤ 0.015 µg/mL
MIC (Bacteroides fragilis [5]; B. fragilis 111): 0.03 µg/mL
MIC (Bacteroides fragilis [5]; B. fragilis 112): ≤ 0.015 µg/mL
MIC (Bacteroides fragilis [5]; B. fragilis 113): ≤ 0.015 µg/mL
MIC (Bacteroides fragilis [5]; B. fragilis 1470): ≤ 0.015 µg/mL
MIC (Bacteroides fragilis [5]; B. fragilis 1877): ≤ 0.015 µg/mL
MIC (Bacteroides fragilis [5]; V. fragilis 1451 (so in the source)): 0.03 µg/mL
MIC ([6]; Pc. asaccharolyticus 1302): ≤ 0.06 µg/mL
MIC ([6]; Pc. asaccharolyticus 1344): ≤ 0.06 µg/mL
MIC (Peptococcus constellatus): 0.5 µg/mL
MIC (Peptococcus magnus; Pc. magnus 1401): 0.125 µg/mL
MIC (Peptococcus magnus; Pc. magnus 1421): 0.125 µg/mL
MIC (Peptococcus magnus; Pc. magnus 1477): 0.125 µg/mL
MIC (Peptococcus prevoti; Pc. prevoti 1281): 0.125 µg/mL
MIC (Peptococcus prevoti; Pc. prevoti 1293): 0.125 µg/mL
MIC (Peptococcus prevoti; Pc. prevoti 1407): 0.5 µg/mL
MIC ([7]; Ps. anaerobius 8): 0.25 µg/mL
MIC ([7]; Ps. anaerobius 52): 0.5 µg/mL
MIC ([7]; Ps. anaerobius 59): ≤ 0.06 µg/mL
MIC ([7]; Ps. anaerobius 1418): ≤ 0.06 µg/mL
MIC ([7]; Ps. anaerobius 1428): 0.25 µg/mL
MIC ([7]; Ps. anaerobius 1451): ≤ 0.06 µg/mL
MIC ([7]; Ps. anaerobius 1477): 0.125 µg/mL
MIC ([8]; Ps. intermedius 1264): ≤ 0.06 µg/mL
MIC ([8]; Ps. intermedius 1624): ≤ 0.06 µg/mL
MIC (Trichomonas vaginalis): < 0.975 µg/mL
hygroscopicity (hygroscopicity): hygroscopic
zone of inhibition at 10 µg/disc (Staphylococcus aureus; read-out: Zone Diameter, S. aureus 3055, benzylpenicillin-susceptible, 10 mcg/disc): 17.8 mm
zone of inhibition at 100 µg/disc (Staphylococcus aureus; read-out: Zone Diameter, S. aureus 3055, benzylpenicillin-susceptible, 100 mcg/disc): 25.2 mm
zone of inhibition at 10 µg/disc (Staphylococcus aureus; read-out: Zone Diameter, S. aureus 3074, benzylpenicillin-resistant, 10 mcg/disc): 16.2 mm
zone of inhibition at 100 µg/disc (Staphylococcus aureus; read-out: Zone Diameter, S. aureus 3074, benzylpenicillin-resistant, 100 mcg/disc): 23.3 mm
zone of inhibition at 10 µg/disc (Staphylococcus aureus; read-out: Zone Diameter, S. aureus 3130, methicillin-resistant, 10 mcg/disc): 19.8 mm
zone of inhibition at 100 µg/disc (Staphylococcus aureus; read-out: Zone Diameter, S. aureus 3130, methicillin-resistant, 100 mcg/disc): 26.8 mm
zone of inhibition at 10 µg/disc (Streptococcus pyogenes): 17 mm
zone of inhibition at 100 µg/disc (Streptococcus pyogenes): 21 mm
zone of inhibition at 10 µg/disc [9]: 15.6 mm
zone of inhibition at 100 µg/disc [9]: 20.4 mm
zone of inhibition at 10 µg/disc (Streptococcus pneumoniae): 25 mm
zone of inhibition at 100 µg/disc (Streptococcus pneumoniae): 31 mm
